In patent US9497970B2, “Pesticide compounds” (priority 2013, dated 2016):

Legend:
Type in all cases: in vivo
[1] = system: Boll Weevil (Anthonomus grandis); test: B.3 Boll Weevil (Anthonomus grandis), microtiter plate insect diet; details: 120 h, 800 ppm, sprayed onto insect diet, 5 days, in comparison with untreated controls, read-out: mortality (egg and larval)
Method: B.3 Boll Weevil (Anthonomus grandis)
For evaluating control of boll weevil (Anthonomus grandis) the test unit consisted of 96-well-microtiter plates containing an insect diet and 5-10 A. grandis eggs.
(§1) The compounds were formulated using a solution containing 75% v/v water and 25% v/v DMSO. Different concentrations of formulated compounds were sprayed onto the insect diet at 5 μl, using a custom built micro atomizer, at two replications.
After application, microtiter plates were incubated at about 25±1° C. and about 75±5% relative humidity for 5 days. Egg and larval mortality was then visually assessed.

[2] = system: Tobacco Budworm (Heliothis virescens); test: B.7 Tobacco Budworm (Heliothis virescens) I, microtiter plate insect diet; details: 120 h, 800 ppm, sprayed onto insect diet, 5 days, in comparison with untreated controls, read-out: mortality (egg and larval)
Method: B.7 Tobacco Budworm (Heliothis virescens) I
as §1, with “For evaluating control of tobacco budworm (Heliothis virescens) the test unit consisted of 96-well-microtiter plates containing an insect diet and 15-25 H. virescens eggs. The” for “The”, “at 10” for “at 5”
(§2) After application, microtiter plates were incubated at about 28±1° C. and about 80±5% relative humidity for 5 days. Egg and larval mortality was then visually assessed.

[3] = system: Mediterranean Fruitfly (Ceratitis capitata); test: B.6 Mediterranean Fruitfly (Ceratitis capitata), microtiter plate insect diet; details: 120 h, 800 ppm, sprayed onto insect diet, 5 days, in comparison with untreated controls, read-out: mortality (egg and larval)
Method: B.6 Mediterranean Fruitfly (Ceratitis capitata)
For evaluating control of Mediterranean fruitfly (Ceratitis capitata) the test unit consisted of microtiter plates containing an insect diet and 50-80 C. capitata eggs.
as §1, §2

[4] = system: Diamond Back Moth (Plutella xylostella); test: B.1 Diamond Back Moth (Plutella xylostella), cabbage leaf dip; details: foliar, 500 ppm, 3rd instar larvae on dipped cabbage leaves, 72 hours after treatment, in comparison with untreated controls, read-out: mortality
Method: B.1 Diamond Back Moth (Plutella xylostella)
The active compound was dissolved at the desired concentration in a mixture of 1:1 (vol:vol) distilled water:aceteone. Surfactant (Kinetic HV) was added at a rate of 0.01% (vol/vol). The test solution was prepared at the day of use.
Leaves of cabbage were dipped in test solution and air-dried. Treated leaves were placed in petri dishes lined with moist filter paper and inoculated with ten 3rd instar larvae. Mortality was recorded 72 hours after treatment. Feeding damages were also recorded using a scale of 0-100%.

| Compound | mortality at 800 ppm [1] [%] | mortality at 800 ppm [2] [%] | mortality at 800 ppm [3] [%] | mortality at 500 ppm [4] [%] |
| --- | --- | --- | --- | --- |
| Cc1cccc(Cl)c1NC(=S)N/N=C/c1ccc2c(ccc3c(-c4ccc(OC(F)(F)F)cc4)n(C)nc32)c1 [C-91, 1-(2-chloro-6-methyl-phenyl)-3-[(E)-[2-methyl-3-[4-(trifluoromethoxy)phenyl]benzo[g]indazol-7-yl]methyleneamino] thiourea] | ≥ 75 | ≥ 75 | ≥ 75 | ≥ 75 |
| C/C(=N\NC(=S)Nc1c(Cl)cccc1Cl)c1ccc2c(ccc3c2ncn3-c2ccc(OC(F)(F)F)cc2)c1 [C-59] | ≥ 75 | ≥ 75 | ≥ 75 |  |
| CN1N=C2c3ccc(/C=N/NC(=S)Nc4c(Cl)cccc4Cl)cc3CCC2C1c1ccc(OC(F)(F)F)cc1 (centres unmarked) [C-95, 1-(2,6-dichlorophenyl)-3-[(E)-[2-methyl-3-[4-(trifluoromethoxy)phenyl]-3,3a,4,5-tetrahydrobenzo[g]indazol-7-yl]methyleneamino]thiourea] | ≥ 75 | ≥ 75 |  | ≥ 75 |
| Cc1cccnc1NC(=S)N/N=C/c1ccc2c(ccc3c2ncn3-c2ccc(OC(F)(F)F)cc2)c1 [C-63, 1-(3-methyl-2-pyridyl)-3-[(E)-[3-[4-(trifluoromethoxy)phenyl]benzo[e]benzimidazol-7-yl]methyleneamino] thiourea] | ≥ 75 | ≥ 75 | ≥ 75 |  |
| Cn1nc2c(ccc3cc(/C=N/NC(=S)Nc4c(Br)cccc4Br)ccc32)c1-c1ccc(OC(F)(F)F)cc1 [C-98, 1-(2,6-dibromophenyl)-3-[(E)-[2-methyl-3-[4-(trifluoromethoxy)phenyl]benzo[g]indazol-7-yl]methyleneamino] thiourea] | ≥ 75 | ≥ 75 | ≥ 75 | ≥ 75 |
| CCc1ccccc1NC(=S)N/N=C/c1ccc2c(c1)CCc1c-2nnn1-c1ccc(OC(F)(F)F)cc1 [C-32, 1-(2-ethylphenyl)-3-[[3-[4-(trifluoromethoxy)phenyl]-5,6-dihydro-4H-benzo[e]benzotriazol-7-ylidene]methylimino]thiourea] | ≥ 75 |  |  |  |
| Cc1cc(Br)cc(C)c1NC(=S)N/N=C/c1ccc2c(c1)CCc1c-2nnn1-c1ccc(OC(F)(F)F)cc1 [C-33, 1-(4-bromo-2,6-dimethyl-phenyl)-3-[(E)-[3-[4-(trifluoromethoxy)phenyl]-4,5-dihydrobenzo[e]benzotriazol-7-yl]methyleneamino]thiourea] | ≥ 75 | ≥ 75 |  |  |
| FC(F)(F)Oc1ccc(-n2cnc3c4ccc(/C=N/NC(=S)Nc5cccc6ccccc56)cc4ccc32)cc1 [C-29, 1-(2H-naphthalen-1-ylidene)-3-[[3-[4-(trifluoromethoxy)phenyl]-9aH-benzo[e]benzimidazol-7-ylidene]methylimino] thiourea] | ≥ 75 | ≥ 75 | ≥ 75 | ≥ 75 |
| FC(F)(F)Oc1ccc(-n2cnc3c4ccc(/C=N/NC(=S)Nc5cccnc5)cc4ccc32)cc1 [C-73, 1-(3-pyridyl)-3-[(E)-[3-[4-(trifluoromethoxy)phenyl]benzo[e]benzimidazol-7-yl]methyleneamino] thiourea] | ≥ 75 |  |  |  |
| COc1ccccc1NC(=S)N/N=C/c1ccc2c(ccc3c2ncn3-c2ccc(OC(F)(F)F)cc2)c1 [C-26, 3-(2-methoxyphenyl)-1-[[3-[4-(trifluoromethoxy)phenyl]-9aH-benzo[e]benzimidazol-7-ylidene]methylimino] isothiourea] | ≥ 75 | ≥ 75 | ≥ 75 | ≥ 75 |
| FC(F)(F)Oc1ccc(-n2cnc3c4ccc(/C=N/NC(=S)Nc5ccc(Cl)cc5Cl)cc4ccc32)cc1 [C-27, 1-(2,4-dichlorophenyl)-3-[(E)-[3-[4-(trifluoromethoxy)phenyl]benzo[e]benzimidazol-7-yl]methyleneamino]thiourea] | ≥ 75 |  | ≥ 75 | ≥ 75 |
| FC(F)(F)Oc1ccc(-n2cnc3c4ccc(/C=N/NC(=S)Nc5cc(Cl)ccc5Cl)cc4ccc32)cc1 [C-42, 1-(2,5-dichlorophenyl)-3-[(E)-[3-[4-(trifluoromethoxy)phenyl]benzo[e]benzimidazol-7-yl]methyleneamino] thiourea] | ≥ 75 |  |  |  |
| O=C(N/N=C/c1ccc2c(ccc3c2ncn3-c2ccc(OC(F)(F)F)cc2)c1)Nc1ccccc1 [C-89, 1-phenyl-3-[(E)-[3-[4-(trifluoromethoxy)phenyl]benzo[e]benzimidazol-7-yl]methyleneamino]urea] | ≥ 75 | ≥ 75 |  | ≥ 75 |
| Fc1ccccc1NC(=S)N/N=C/c1ccc2c(ccc3c2ncn3-c2ccc(OC(F)(F)F)cc2)c1 [C-40, 3-(2-fluorophenyl)-1-[[3-[4-(trifluoromethoxy)phenyl]-5H-benzo[e]benzimidazol-7-ylidene]methylimino] isothiourea] | ≥ 75 |  | ≥ 75 | ≥ 75 |
| O=C(/N=C1\SCC(=O)N1c1ccccc1C(F)(F)F)Nc1ccc2c(ccc3c2ncn3-c2ccc(OC(F)(F)F)cc2)c1 [C-116, (1Z)-1-[4-oxo-3-[2-(trifluoromethyl)phenyl]thiazolidin-2-ylidene]-3-[3-[4-(trifluoromethoxy)phenyl]-8H-benzo[e]benzimidazol-7-ylidene]urea] | ≥ 75 | ≥ 75 |  |  |
| CCc1cccc(C)c1NC(=S)N/N=C/c1ccc2c(ccc3c2nnn3-c2ccc(OC(F)(F)F)cc2)c1 [C-62, 1-(2-ethyl-6-methyl-phenyl)-3-[(E)-[3-[4-(trifluoromethoxy)phenyl]benzo[e]benzotriazol-7-yl]methyleneamino] thiourea] |  | ≥ 75 |  |  |
| FC(F)(F)Oc1ccc(-n2ncc3c4ccc(/C=N/NC(=S)Nc5c(Cl)cccc5Cl)cc4ccc32)cc1 [C-49, 1-(2,6-dichlorophenyl)-3-[(E)-[3-[4-(trifluoromethoxy)phenyl]benzo[e]indazol-7-yl]methyleneamino]thiourea] | ≥ 75 | ≥ 75 |  |  |
| Cn1nc2c(ccc3cc(/C=N/NC(=S)Nc4ncccc4I)ccc32)c1-c1ccc(OC(F)(F)F)cc1 [C-102, 1-(3-iodo-2-pyridyl)-3-[(E)-[2-methyl-3-[4-(trifluoromethoxy)phenyl]benzo[g]indazol-7-yl]methyleneamino]thiourea] | ≥ 75 |  |  |  |
| Cc1c(Cl)cccc1NC(=S)N/N=C/c1ccc2c(ccc3c2ncn3-c2ccc(OC(F)(F)F)cc2)c1 [C-39, 1-(3-chloro-2-methyl-phenyl)-3-[(E)-[3-[4-(trifluoromethoxy)phenyl]benzo[e]benzimidazol-7-yl]methyleneamino] thiourea] | ≥ 75 | ≥ 75 | ≥ 75 |  |
| Cc1cccc(C)c1NC(=S)N/N=C/c1ccc2c(c1)CCc1c-2nnn1-c1ccc(OC(F)(F)F)cc1 [C-11, 1-(2,6-dimethylphenyl)-3-[(E)-[3-[4-(trifluoromethoxy)phenyl]-4,5-dihydrobenzo[e]benzotriazol-7-yl]methyleneamino]thiourea] |  | ≥ 75 | ≥ 75 |  |
| CCc1cccc(CC)c1NC(=S)N/N=C/c1ccc2c(ccc3c2nnn3-c2ccc(OC(F)(F)F)cc2)c1 [C-61, 1-(2,6-diethylphenyl)-3-[(E)-[3-[4-(trifluoromethoxy)phenyl]benzo[e]benzotriazol-7-yl]methyleneamino] thiourea] | ≥ 75 | ≥ 75 |  |  |
| Cc1cccc(C)c1NC(=S)N/N=C/c1ccc2c(ccc3c2nnn3-c2ccc(OC(F)(F)F)cc2)c1 [C-54, 1-(2,6-dimethylphenyl)-3-[(E)-[3-[4-(trifluoromethoxy)phenyl]benzo[e]benzotriazol-7-yl]methyleneamino] thiourea] |  | ≥ 75 |  |  |
| FC(F)(F)Oc1ccc(-n2cnc3c4ccc(/C=N/NC(=S)Nc5ccccc5I)cc4ccc32)cc1 [C-64, 1-(2-iodophenyl)-3-[[3-[4-(trifluoromethoxy)phenyl]-5H-benzo[e]benzimidazol-7-ylidene]methylimino] thiourea] | ≥ 75 | ≥ 75 | ≥ 75 |  |
| Cc1cccc(NC(=S)N/N=C/c2ccc3c(ccc4c3ncn4-c3ccc(OC(F)(F)F)cc3)c2)c1C [C-28, 1-(2,3-dimethylphenyl)-3-[(E)-[3-[4-(trifluoromethoxy)phenyl]benzo[e]benzimidazol-7-yl]methyleneamino] thiourea] | ≥ 75 | ≥ 75 | ≥ 75 |  |
